Publication PMC5363699, “Transcriptional, Functional, and Mechanistic Comparisons of Stem Cell–Derived Hepatocytes, HepaRG Cells, and Three-Dimensional Human Hepatocyte Spheroids as Predictive In Vitro Systems for Drug-Induced Liver Injury” (Drug Metabolism and Disposition, 2017)
Where a name gives a salt, the structure may show the parent alone. Read-outs that look alike come from different tables or passages of the source.

Assays:
[1] = test system: HepG2; conditions: cited from earlier work
[2] = test system: HLC; design: method as in Takayama et al. (2013), Tasnim et al. (2016); conditions: read-out: Sensitivity, HLC Acute, cited from earlier work
[3] = test system: PHH spheroids; assay: Viability (cellular ATP, CellTiter-Glo) of 3D PHH spheroids after single or repeated exposure; format: cell-based, human; conditions: for EC50: read-out: EC50 (viability)
[4] = cited from earlier work; for Cmax: human
[5] = test system: HepaRG; conditions: cited from earlier work
[6] = test system: hiPS-Hep cells; assay: Viability (cellular ATP, CellTiter-Glo) of hiPS-Hep cells after single or repeated exposure; format: cell-based; conditions: Homo sapiens; for EC50: read-out: EC50 (viability); for IC50: read-out: 14-day IC50
[7] = test system: HepaRG cells; assay: cells; format: cell-based; conditions: Homo sapiens; for EC50: read-out: EC50 (viability)
[8] = test system: BSEP; design: method as in Funk et al., 2001; conditions: ref Funk et al., 2001; read-out: IC50 of BSEP inhibition; cited from earlier work
[9] = test system: Rat Hepatocytes; design: method as in Schutte et al. (2011); conditions: published model, acute; ref Schutte et al. (2011); read-out: Sensitivity, Rat Hepatocytes Acute; cited from earlier work
[10] = 4 g APAP daily for 14 days; ref Watkins et al., 2006; cited from earlier work
[11] = test system: C3A; design: method as in Fey and Wrzesinski (2012); conditions: published spheroid model, acute; ref Fey and Wrzesinski (2012); read-out: Sensitivity, C3A Acute; cited from earlier work
[12] = published spheroid model, acute, ref Mueller et al. (2014), Ramaiahgari et al. (2014), Takayama et al. (2013), read-out: Sensitivity, HepG2 Acute
[13] = published spheroid model, repeated dose 6 days, ref Ramaiahgari et al. (2014), read-out: Sensitivity, HepG2 Repeated Dose (6 Days)
[14] = published spheroid model, acute, ref Takayama et al. (2013), Tasnim et al. (2016)
[15] = published spheroid model, acute, ref Gunness et al. (2013), Mueller et al. (2014), read-out: Sensitivity, HepaRG Acute
[16] = 336 h, hiPS-Hep cells, 14 days repeated exposure
[17] = 336 h, HepaRG cells, 14 days repeated exposure, read-out: 14-day IC50

In the case of aflatoxin B1, the IC50 ([1]; read-out: Sensitivity, HepG2 Acute) is listed as > 200 µM, the IC50 [2] is listed as 7 µM and the IC50 ([3]; read-out: Sensitivity, PHH Acute) is listed as 0.4 µM. The IC50 ([3]; read-out: Sensitivity, PHH Repeated Dose (14 Days)) was 0.03 µM, the “exposure levels detected in exposed individuals” value ([4]; in vivo) was 28.5 nM and the Cmax ([4]; read-out: Cmax or exposure value (toxic), in vivo) was 30 nM. The IC50 ([5]; read-out: Sensitivity, HepaRG Acute) was 1.6 µM.
For `CCOC(=O)CN[C@@H](C(=O)N1CC[C@H]1C(=O)NCc1ccc(/C(N)=N\O)cc1)C1CCCCC1` [Ximelagatran, ximelagatran], the EC50 ([6]; 48 h) was > 400 µM, the EC50 ([6]; 168 h) was > 400 µM and the EC50 ([6]; 336 h) was > 400 µM. For the same compound, the EC50 ([7]; HepaRG, 48 h) was > 400 µM, the EC50 ([7]; HepaRG, 168 h) was > 400 µM and the EC50 ([7]; HepaRG, 336 h) was > 400 µM. The EC50 ([3]; Homo sapiens, 48 h) was > 400 µM, the EC50 ([3]; Homo sapiens, 168 h) was 379 µM and the EC50 ([3]; Homo sapiens, 336 h) was 165 µM.
Work on `Cc1c(C)c2c(c(C)c1O)CCC(C)(COc1ccc(CC3SC(=O)NC3=O)cc1)O2` (stereo not drawn) [Troglitazone, troglitazone] yielded an EC50 ([6]; 48 h) of 46 µM, an EC50 ([6]; 168 h) of 33.9 µM and an IC50 ([6]; 336 h) of 18.7 µM. The EC50 ([6]; 336 h) was 18.7 µM, the IC50 [1, 12] was 80 to 150 µM and the IC50 [1, 13] was 100 µM. The EC50 ([7]; HepaRG, 48 h) was > 100 µM, the EC50 ([7]; HepaRG, 168 h) was 36.5 µM and the IC50 ([7]; HepaRG, 336 h, read-out: 14-day IC50) was 34.6 µM. For the same compound, the EC50 ([7]; HepaRG, 336 h) was 34.6 µM, the IC50 [2, 14] was 50 µM and the EC50 ([3]; Homo sapiens, 48 h) was 37.4 µM. For the same compound, the EC50 ([3]; Homo sapiens, 168 h) was 4.2 µM, the EC50 ([3]; Homo sapiens, 336 h) was 1.5 µM and the IC50 ([3]; Homo sapiens, read-out: Sensitivity, PHH Acute) was 37.4 µM. For the same compound, the Cmax ([4]; read-out: therapeutic Cmax, ref Loi et al., 1999) was 2820 nM and the IC50 [5, 15] was 400 µM.
For `Cc1c(C)c2c(c(C)c1OS(=O)(=O)O)CCC(C)(COc1ccc(CC3SC(=O)NC3=O)cc1)O2` (stereo not drawn) [troglitazone sulfate], the IC50 [8] is given as 0.4 µM.
For `CN(C)CCCN1c2ccccc2Sc2ccc(Cl)cc21` [Chlorpromazine, chlorpromazine], the EC50 ([6]; 48 h) was 38.6 µM, the EC50 ([6]; 168 h) was 23.7 µM and the EC50 ([6]; 336 h) was 24.4 µM. For the same compound, the IC50 [6, 16] was 24.6 µM, the IC50 [1, 12] was 43 µM and the IC50 [7, 17] was 34.1 µM. It also gave an EC50 ([7]; HepaRG, 48 h) of 67 µM, an EC50 ([7]; HepaRG, 168 h) of 32.4 µM and an EC50 ([7]; HepaRG, 336 h) of 34.1 µM. The EC50 ([3]; Homo sapiens, 48 h) was 16.6 µM, the EC50 ([3]; Homo sapiens, 168 h) was 8.8 µM and the EC50 ([3]; Homo sapiens, 336 h) was 4.6 µM. For the same compound, the Cmax ([4]; read-out: human toxic Cmax, toxic exposure, ref Regenthal et al., 1999) was 1600 nM, the IC50 [5, 15] was 98 µM and the IC50 ([5]; published spheroid model, repeated dose 72 h, ref Mueller et al. (2014), read-out: Sensitivity, HepaRG Repeated Dose (72 h)) was 43 µM.
In the case of `CC(=O)Nc1ccc(O)cc1` [APAP, acetaminophen], the EC50 ([6]; 48 h) is reported as > 10000 µM, the EC50 ([6]; 168 h) is reported as > 10000 µM and the EC50 ([6]; 336 h) is reported as 9440 µM. The IC50 [6, 16] was 9440 µM, the IC50 [1, 12] was 24000 µM and the IC50 [1, 13] was 9400 µM. The IC50 [7, 17] was 1310 µM, the EC50 ([7]; HepaRG, 48 h) was 5920 µM and the EC50 ([7]; HepaRG, 168 h) was 1590 µM. The EC50 ([7]; HepaRG, 336 h) was 1310 µM, the IC50 ([7]; read-out: 48-hour IC50, HepaRG cells, acute, 48 hours) was 5920 µM and the IC50 [2, 14] was 30000 µM. The EC50 ([3]; Homo sapiens, 48 h) was > 10000 µM, the EC50 ([3]; Homo sapiens, 168 h) was 2700 µM and the EC50 ([3]; Homo sapiens, 336 h) was 644 µM. The IC50 ([3]; Homo sapiens, 336 h, PHH spheroids, 14 days repeated exposure, read-out: 14-day IC50) was 644 µM, the “peak APAP serum level average” value ([4]; healthy volunteers, 4 g APAP daily for 14 days, ref Watkins et al., 2006) was 99.2 µM and the “APAP plasma concentration for which immediate treatment is stipulated” value ([4]; patients after acute overdose, depending on additional risk factors, ref Vale and Proudfoot, 1995) was 0.7 to 1.3 mM. For the same compound, the Cmax ([4]; read-out: Cmax or exposure value (toxic), toxic exposure, ref Vale and Proudfoot, 1995) was 700000 nM, the IC50 [9] was 40000 µM and the “healthy volunteers with serum alanine aminotransferase elevations above three times the upper limit” value [10] was 31%–44%. For the same compound, the IC50 [11] was 40000 µM and the IC50 [5, 15] was 3000 µM.
